Counter-ions that a name gives are not always drawn. Like-named read-outs stand apart in the source and are kept apart here.
Legend:
[1] = test system: primary cultured cells of rat pituitary anterior lobes; test: Inhibition of LH/FSH secretion by primary cultured cells of rat pituitary anterior lobes; type: cell-based; conditions: 100 μl of 20 μM compound solution + 100 μl of 5 nM GnRH in 800 μl medium, 37° C. for 3 hours
Protocol: Anterior lobes of pituitary glands from 40 Wistar rats (8-week old, male) was put into a petri dish containing buffer A (0.7 mM sodium dihydrogen phosphate, 137 mM sodium chloride, 5 mM potassium chloride, 25 mM HEPES, 50 μg/ml gentamicin sulfate), which was once washed with the buffer A, then the anterior lobes were divided into four portions, followed by further washing twice. […] The concentrations of […] and FSH in the supernatant were determined by using the radio immunoassay kit (Amersham Inc.).
By calculating in accordance with the formula; 100−(LH or FSH concentration in the presence of the compound)/(LH or FSH concentration of the control culture)×100, the inhibiting rate (%) of LH or FSH secretion by each compound was determined. […]

male SD rats = test: Suppression of testosterone concentration in rat plasma; type: in vivo; conditions: 30 mg per 1 kg once subcutaneously, plasma at 24 hours after administration, p<0.05
Protocol: The compound 15 produced in Working Example 9 was dissolved in vehicle I (20% propylene glycol-80% physiological saline). The solution was administered once subcutaneously to male SD rats (8-week old, n=5). […] Animals administered with the vehicle alone were used as control.

male ICR mice = conditions: 30 mg per 1 kg orally once a day during 3 days, plasma at 24 hours after administration, p<0.05
Protocol: The solution was administered oraly once a day during successive 3 days to male ICR mice (10-week old, n=12). The dosage was 30 mg per 1 kg of body weight. ICR mice administered with vehicle alone were used as control (n=15). At 24 hours after the administration, blood was collected from jugular vein under anesthesia with ether. To the blood were immediately added ethylenediamine tetracetate (EDTA) at a final concentration of 3 mg/ml and aprotinin at a final concentration of 300 KIU/ml. The mixture was centrifuged for 15 minutes at 3000×g, and the concentration of testosterone in the plasma was measured by the radio immunoassay.
The rate of testosterone suppression (%) of the test compound was determined by the formula; 100−(concentration of plasma testosterone in the test group)/(concentration of plasma testosterone in the control group)×100.

SMILES: CCOC(=O)c1cn(Cc2ccccc2OC)c2sc(-c3ccc(OC)cc3)c(CN(C)Cc3ccccc3)c2c1=O (as salt: hydrochloride) [3-(N-benzyl-N-methylaminomethyl)-4,7-dihydro-7-(2-methoxybenzyl)-2-(4-methoxyphenyl)-4-oxothieno[2,3-b]pyridine-5-carboxylic acid ethyl ester]
- melting point: 147 to 152 °C

SMILES: CCOC(=O)c1cn(Cc2ccccc2OC)c2sc(-c3ccc(OC)cc3)c(CN(C)Cc3ccccc3)c2c1=O [3-(N-benzyl-N-methylaminomethyl)-4,7-dihydro-7-(2-methoxybenzyl)-2-(4-methoxyphenyl)-4-oxothieno[2,3-b]pyridine-5-carboxylic acid ethyl ester]
- inhibition at 20 µM (stock) ([1]; p<0.01, n=3, read-out: inhibiting rate (%) of FSH secretion): 20 ± 10%
- inhibition at 20 µM (stock) ([1]; p<0.01, n=3, read-out: inhibiting rate (%) of LH secretion): 28 ± 9%
- rate of testosterone suppression (%) (male SD rats): 38±9.7%

SMILES: CCC(=O)Nc1ccc(-c2sc3c(c2CN(C)Cc2ccccc2)c(=O)c(C(=O)c2ccccc2)cn3Cc2c(F)cccc2F)cc1 [Working Example 56, 5-Benzoyl-7-(2,6-difluorobenzyl)-4,7-dihydro-3-(N-methyl-N-benzylaminomethyl)-2-(4-propionylamidophenyl)-4-oxothieno[2,3-b]pyridine]
- rate of testosterone suppression (%) (male ICR mice): 85±9.7%

Source: patent US6514988B1, “Condensed-ring thiophene derivatives, their production and use” (Takeda Chemical Industries, Ltd., priority 1994, dated 2003)
